Several values for one entry are separate records, joined by “and”; a condition that tells them apart may be missing. Equal entries are not always repeated. Entries after “also recorded” stand apart in the source; their conditions may differ. Where two headings read alike, the source gives them in different places.
Tests used:
FLT3 = molecular target: T1, FLT3 (Homo sapiens, UniProt P36888); experiment: In vitro kinase assay, FLT3 (Reaction Biology Corporation); assay type: biochemical; settings: 10 μM ATP; read-out: FLT3 IC50
T1 construct: Reaction Biology Corporation (contract assay)
T1 sequence (P36888 27-993): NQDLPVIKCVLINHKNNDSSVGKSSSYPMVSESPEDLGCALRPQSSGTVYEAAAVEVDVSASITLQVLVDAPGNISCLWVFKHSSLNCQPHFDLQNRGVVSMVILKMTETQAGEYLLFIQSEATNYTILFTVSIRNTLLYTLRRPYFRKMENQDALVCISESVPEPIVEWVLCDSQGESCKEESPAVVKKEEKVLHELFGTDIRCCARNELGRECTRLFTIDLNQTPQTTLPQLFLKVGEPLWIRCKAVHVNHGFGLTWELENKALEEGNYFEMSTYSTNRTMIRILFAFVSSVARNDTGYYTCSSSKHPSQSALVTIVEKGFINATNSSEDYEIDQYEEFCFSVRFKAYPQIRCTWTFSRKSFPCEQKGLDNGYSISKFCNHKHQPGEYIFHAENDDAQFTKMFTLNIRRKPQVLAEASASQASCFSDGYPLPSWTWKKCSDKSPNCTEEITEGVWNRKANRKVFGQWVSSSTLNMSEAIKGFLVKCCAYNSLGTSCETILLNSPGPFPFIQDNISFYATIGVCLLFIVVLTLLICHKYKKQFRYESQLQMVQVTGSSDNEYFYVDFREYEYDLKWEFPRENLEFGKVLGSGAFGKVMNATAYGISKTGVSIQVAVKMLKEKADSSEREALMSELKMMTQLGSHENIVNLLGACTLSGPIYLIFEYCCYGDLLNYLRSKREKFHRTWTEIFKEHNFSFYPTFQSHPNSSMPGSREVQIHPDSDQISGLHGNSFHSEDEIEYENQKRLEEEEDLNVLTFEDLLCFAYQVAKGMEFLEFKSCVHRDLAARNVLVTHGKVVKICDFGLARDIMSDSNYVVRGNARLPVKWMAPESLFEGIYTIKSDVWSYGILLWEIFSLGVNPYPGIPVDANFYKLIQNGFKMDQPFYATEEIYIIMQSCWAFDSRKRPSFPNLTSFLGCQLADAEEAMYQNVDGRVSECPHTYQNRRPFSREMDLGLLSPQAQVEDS
Experimental: (§1) Compounds were tested in 10-dose IC50 mode with 3-fold serial dilution starting at 50 μM. […] Reactions were carried out at 10 μM ATP. Average and standard deviations of reactions carried out in triplicate are shown.
(§2) In vitro kinase assay to detect CK1 or FLT3 activity: CK1 and FLT3 assays as well as complete kinase profile of 296 kinases was performed by Reaction Biology Corporation. For FLT3 20 μM final Abltide was used, sequence: [[…]]. For CK1 (all isoforms) 20 μM CK1 tide was used, sequence: [KRRRAL[pS]VASLPGL] in a standard kinase assay with ^32P-ATP and purified kinase. Incorporation of ^32P-ATP into the peptide was measured after a filter-binding assay. In-house CK1d inhibition assays were performed using a standard homogenous time-resolved fluorescence resonance energy transfer (TR-FRET) format in 50 mM Hepes, pH 7.0, 2.5 mM MgCl2, 0.1 mg/ml bovine serum albumin, 1 mM DL-dithiothreitol, 0.01% Triton X-100 (all from Sigma-Aldrich). Briefly, the CK1δ substrate (DEKTDDE, containing CK1 consensus sequence; 4 μL of a 500 nM stock solution) is labeled with a small Ulight acceptor dye (PerkinElmer). In the presence of 10 μL of 10 nM CK1δ, the Ulight peptide is phosphorylated at a single amino acid that is specifically recognized by a europium chelate (Eu)-labeled phosphospecific antibody. Assays were performed in the presence of 2 μL of compound at different (measured) concentrations, and reactions were stopped by adding 10 μL of 4 nM Eu-anti-p-Topo-IIa (PerkinElmer) in Lance Detection Buffer (Perkin Elmer). Upon excitation of the Eu-labeled antibody, energy is transferred to the acceptor dye resulting in the emission of detected light at 665 nm.

[1] = test system: GCPs in organotypic cerebellar slices; experiment: Organotypic cerebellar slice GCP migration assay; assay type: cell-based, mice; settings: 500 nM, 48 hours; result in words
Description: Cerebella from P7 mice were isolated and sliced using a vibratome. Subsequently, slices were electroporated with venus-GFP to visualize GCPs. […] Many GCPs migrate to the Purkinje cell layer in DMSO treated cells, but fewer do so in SR-653234 or SR-1277 treated slices. […] Phospho-Y15 Cdc2 is a measure of Wee1 activity. Skp-1 is used as a loading control.

[2] = test system: cerebellar granule cell progenitors (GCPs); experiment: In vitro proliferation of cerebellar granule cell progenitors (3H-thymidine uptake); assay type: cell-based, mouse; settings: 24 hours; result in words
Experimental: GCPs were incubated with DMSO, 5 μM D4476 (known CK1δ and CK1ε inhibitor), or 50 μM D4476 and processed for ^3H-thymidine incorporation after 24 hours. A representative experiment performed in triplicate is shown.

HeLa cells = experiment: Cell viability, ATP content (Cell-Titer Glo); assay type: cell-based; settings: 24 hours, result in words
Description: Error bars represent the standard deviation of three separate experiments.

K328M-Wee1-luciferase [3] = experiment: Wee1-luciferase assay (stabilization of K328M-Wee1-luciferase); assay type: cell-based; settings: for EC50: read-out: EC50 for stabilization of K328M-Wee1-luciferase
Description: Steady-state level of K328M-Wee1-Luciferase (K328M-Wee1-Luc) was divided by Luciferase level (Luc) and plotted.
(§3) Similar assays have previously been described; PubChem AID 1807.

Luciferase = Luciferase alone control (PGL3 vector); assay type: cell-based; settings: HeLa cells, cycloheximide, 5 μM; result in words
Experimental: (§4) The percentage of signal relative to the proteasome inhibitor MG132 is shown. […] A Western blot is shown of endogenous Wee1 or Skp1 (loading control) of HeLa cells incubated with 5 μM of indicated compounds for 24 hours. […] The 0 time point was set to 100%. […] The extent of degradation was measured as in FIG. D.
5 μM of indicated compounds were incubated with K328M-Wee1-Luciferase or Luciferase expressing HeLa cells and the extent of stabilization measured after adding Brite-lite. MG132 was used as a positive control.
as §3

CK1ε = molecular target: T2, CK1ε (Homo sapiens, UniProt P49674); experiment: In vitro kinase assay, CK1ε (Reaction Biology Corporation); assay type: biochemical; settings: 10 μM ATP
T2 construct: Reaction Biology Corporation (contract assay)
Experimental: as §1
as §2, with “Briefly, the CK1δ substrate (DEKTDDE, containing CK1 consensus sequence; 4 μL of a 500 nM stock solution) is labeled with a small Ulight acceptor dye (PerkinElmer). In the presence of 10 μL of 10 nM CK1δ, the Ulight peptide is phosphorylated at a single amino acid that is specifically recognized by a europium chelate (Eu)-labeled phosphospecific antibody.” left out

K328M-Wee1-luciferase [4] = experiment: K328M-Wee1-luciferase degradation with cycloheximide; assay type: cell-based; settings: HeLa cells, 5 μM, result in words
Experimental: as §4

cyclin dependent kinases = experiment: Kinase activity, cyclin dependent kinases; assay type: biochemical; settings: result in words
Description: CNS neurogenesis requires Cdk1 activity regulated by the phosphatase Cdc25 and the tyrosine kinase Wee1[1]. Cdk1 activity decreases in normal adult neurons and is reactivated in neurological diseases such as Alzheimer's[2]. A major mechanism controlling Cdk1 activity in neurons is Wee1 degradation via the ubiquitin proteasome pathway. It was sought to identify pathways controlling neuronal Wee1 degradation using cerebellar granule cells and a reporter of Wee1 turnover, K328M-Wee1-Luciferase[4].

T2 sequence (P49674 whole entry): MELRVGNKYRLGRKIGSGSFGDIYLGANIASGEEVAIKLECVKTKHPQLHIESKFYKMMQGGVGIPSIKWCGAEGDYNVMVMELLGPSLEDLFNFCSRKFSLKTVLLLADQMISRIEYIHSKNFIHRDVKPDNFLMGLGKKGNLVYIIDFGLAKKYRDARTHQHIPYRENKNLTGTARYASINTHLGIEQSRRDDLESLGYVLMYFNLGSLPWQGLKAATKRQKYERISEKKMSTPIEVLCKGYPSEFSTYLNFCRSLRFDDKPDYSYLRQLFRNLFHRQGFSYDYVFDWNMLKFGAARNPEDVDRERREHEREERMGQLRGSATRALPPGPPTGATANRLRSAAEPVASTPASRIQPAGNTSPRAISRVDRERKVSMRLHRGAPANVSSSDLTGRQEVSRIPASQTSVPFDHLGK

## O=[N+]([O-])c1cccc2[nH]c(CNc3nc(N4CCOCC4)nc4c3ncn4-c3ccsc3)nc12 [SR-1277]
FLT3
  IC50: 305 nM
[1]
  GCP migration to the Purkinje cell layer: fewer do so
[2]
  inhibition of GCP proliferation (3H-thymidine): robust inhibition
HeLa cells
  cell viability: not affected
K328M-Wee1-luciferase [3]; 0.25 µM
  % Inhibition, Wee1 Degradation: 100.0%
K328M-Wee1-luciferase [3]
  EC50: 40 nM

## c1ccc2[nH]c(CNc3nc(N4CCOCC4)nc4c3ncn4-c3ccsc3)nc2c1 [SR-653234]
FLT3
  IC50: 161 nM and 100 nM
Luciferase
  luciferase degradation: does not affect luciferase degradation
CK1ε
  IC50: 100 nM
K328M-Wee1-luciferase [4]
  K328M-Wee1-luciferase degradation: inhibited degradation of K328M-Wee1-luciferase; also recorded: inhibits K328M-Wee1-luciferase degradation
[1]
  GCP migration to the Purkinje cell layer: fewer do so
[2]
  inhibition of GCP proliferation (3H-thymidine): robust inhibition
Cyclin dependent kinases
  activity toward cyclin dependent kinases: does not show any appreciable activity
HeLa cells
  cell viability: without affecting cell viability; also recorded: not affected
K328M-Wee1-luciferase [3]; HeLa cells
  EC50: 624 nM
K328M-Wee1-luciferase [3]; HeLa cells, result in words
  stabilization of K328M-Wee1-luciferase: stabilizes Wee1-luciferase
K328M-Wee1-luciferase [3]; at 250 nM, reported relative to SR-1277 = 100%
  % Inhibition, Wee1 Degradation: 56.8%

From patent US9493464B2, “Wee1 degradation inhibitors” (The Scripps Research Institute, priority 2012, dated 2016)
